# Source: article PMC12668308, “A Novel Antimalarial Agent that Inhibits Protein Synthesis in Plasmodium falciparum” (Angewandte Chemie (International Ed. in English), 2025)
# Where two headings read alike, the source gives them in different places.
# Key:
# Dd2b2^WT = assay: [3H]-hypoxanthine incorporation assay; format: cell-based, Plasmodium falciparum; conditions: Plasmodium falciparum, 72 h, read-out: Parent (Dd2b2^WT) IC50
# Method: (§1) P. falciparum asexual blood stage parasites were cultured in human red blood cells (RBC, Blutspende SRK, Zurich) at a hematocrit of 5% in RPMI 1640 medium. The RPMI 1640 medium (ThermoFisher Scientific #51800−043) was supplemented with the following: 24 mM NaHCO3 (pH 7.3, Sigma-Aldrich #31437−500G-R), 25 mM Hepes (Sigma-Aldrich #H4034−500G), 0.36 mM hypoxanthine (Sigma-Aldrich # H9377−25G), 100 µg mL^-1 neomycin (Sigma-Aldrich #N6386−100G) and 0.5% Albumax II (Thermo Fisher #11021−045). Additionally, 2 mM choline chloride (279 mg/L, Sigma-Aldrich #C7527−100G) was added to the culture to block the induction of sexual commitment as described. ^[31^] The RPMI 1640 medium and components were dissolved in water (Milli-Q purified), stirred for at least 3 h, and then sterile filtered (0.22 μm pore size) with a bottle top filter (Corning # 431118). Parasite cultures were maintained in an atmosphere of 3% O2, 4% CO2, and 93% N2 in air-tight chambers at 37 °C. The [^3H]-hypoxanthine incorporation assay was used to test compound activity in the specific parasite lines as described.^[32^] Briefly, compounds were dissolved in DMSO (10 mM) and diluted in a hypoxanthine-free culture medium. A limiting dilution was performed over a 64-fold range (6-step twofold dilution) in a 96-well plate in duplicates. For every starting concentration, a limiting dilution was performed over a 64-fold range (6-step twofold dilution) in a 96-well plate in two biological duplicates. Parasites were added at 100 µL to each well containing the compound to obtain a final parasitemia of 0.3% and haematocrit of 1.25%. The plates were incubated for 48 h before 0.25 µCi of [^3H]-hypoxanthine was added per well for an additional 24 h. Parasites were harvested on a glass-fiber filter with a Microbeta FilterMate cell harvester (Perkin Elmer, Waltham, USA) and radioactivity was counted using a MicroBeta2 liquid scintillation counter (Perkin Elmer, Waltham, US). […] The fifty percent inhibitory concentration (IC50) was calculated by using nonlinear, four parameter (variable slope) curve fitting as described ^[33^] after importing into GraphPad Prism (version 8.3.0).
# 31 was used for resistance selection studies using the strain Dd2b2 (kindly provided by David Fidock). Resistance selection was done as described in ^[34^]. As summarized in Table S3, an initial inoculum of 2 x 10^9 asexual blood stage parasites (at 2-2.5% parasitemia) were cultured in three independent flasks. […] Cloning via limiting dilution was performed to obtain resistant clones for further characterization as described in section 2.2.5.
# Dd2b2^pfmdr1 G182S = format: cell-based, Plasmodium falciparum; conditions: Dd2b2^pfmdr1 G182S vs Dd2b2^WT
# Method: (§2) ^[a] 72-h [^3H] hypoxanthhine incorporation assay; Data is expressed as mean±s.d. The assay was performed in three independent biological experiments, each in biological duplicates
# as §1
# Dd2b2^pfmdr1 K1065N = format: cell-based, Plasmodium falciparum; conditions: Dd2b2^pfmdr1 K1065N vs Dd2b2^WT
# Method: as §2
# (§3) P. falciparum asexual blood stage parasites were cultured in human red blood cells (RBC, Blutspende SRK, Zurich) at a hematocrit of 5% in RPMI 1640 medium. The RPMI 1640 medium (ThermoFisher Scientific #51800−043) was supplemented with the following: 24 mM NaHCO3 (pH 7.3, Sigma-Aldrich #31437−500G-R), 25 mM Hepes (Sigma-Aldrich #H4034−500G), 0.36 mM hypoxanthine (Sigma-Aldrich # H9377−25G), 100 µg mL^-1 neomycin (Sigma-Aldrich #N6386−100G) and 0.5% Albumax II (Thermo Fisher #11021−045). Additionally, 2 mM choline chloride (279 mg/L, Sigma-Aldrich #C7527−100G) was added to the culture to block the induction of sexual commitment as described. ^[31^] The RPMI 1640 medium and components were dissolved in water (Milli-Q purified), stirred for at least 3 h, and then sterile filtered (0.22 μm pore size) with a bottle top filter (Corning # 431118). Parasite cultures were maintained in an atmosphere of 3% O2, 4% CO2, and 93% N2 in air-tight chambers at 37 °C. The [^3H]-hypoxanthine incorporation assay was used to test compound activity in the specific parasite lines as described.^[32^] Briefly, compounds were dissolved in DMSO (10 mM) and diluted in a hypoxanthine-free culture medium. A limiting dilution was performed over a 64-fold range (6-step twofold dilution) in a 96-well plate in duplicates. For every starting concentration, a limiting dilution was performed over a 64-fold range (6-step twofold dilution) in a 96-well plate in two biological duplicates. Parasites were added at 100 µL to each well containing the compound to obtain a final parasitemia of 0.3% and haematocrit of 1.25%. The plates were incubated for 48 h before 0.25 µCi of [^3H]-hypoxanthine was added per well for an additional 24 h. Parasites were harvested on a glass-fiber filter with a Microbeta FilterMate cell harvester (Perkin Elmer, Waltham, USA) and radioactivity was counted using a MicroBeta2 liquid scintillation counter (Perkin Elmer, Waltham, US). The results were recorded, processed by subtraction of the mean background signal obtained from the uninfected RBC controls and expressed as percentage of untreated controls. The fifty percent inhibitory concentration (IC50) was calculated by using nonlinear, four parameter (variable slope) curve fitting as described ^[33^] after importing into GraphPad Prism (version 8.3.0).
# 3D7^WT = assay: [3H]-hypoxanthine incorporation assay; format: cell-based; conditions: Plasmodium falciparum, read-out: 3D7^WT IC50
# Method: (§4) ^[a] 72-h [^3H] hypoxanthhine incorporation assay; Data is expressed as mean±s.d.. The assay was performed in three independent biological experiments, each in biological duplicates.
# as §3
# 3D7^Cas9 pfmdr1 G182S = format: cell-based, Plasmodium falciparum; conditions: 3D7^Cas9 pfmdr1 G182S vs 3D7^WT
# Method: as §4, §3
# The P. falciparum 3D7 wild type parasites in the ring stage were transfected as described.^[20] Infected RBCs collected from a 5 ml culture of synchronous ring stage parasites (5-6% parasitemia at ) were added to 250 µl of packed RBCs and were co-transfected with 50µg of Cas9 and 50 µg of donor plasmids using a Bio-Rad Gene Pulser Xcell Electroporation System (single exponential pulse, 310 V, 250 µF). 24 hours post-transfection, 5 nM WR99210 (MedChemExpress #HY-116387) was added to the culture medium for six days to select for gene-edited parasites, and henceforth parasites were maintained in normal culture medium until a stably propagating parasite population was obtained. After ~4 weeks post-transfection, stably propagating parasite population were obtained. The transgenic parasite line (3D7^pfmdr1 G182S) was cloned out using an established plaque assays via limiting dilution.^[35^] […]
# [1] = test system: P. falciparum NF54 strain; assay: [3H]-hypoxanthine incorporation assay, asexual blood stage; format: cell-based, Plasmodium falciparum; conditions: Plasmodium falciparum, NF54, asexual blood stage; mean ± s.d.; read-out: PfNF54 IC50 ± s.d.
# Method: as §1
# [2] = Metabolic stability in liver S9 fractions; format: in vitro ADME; conditions: pooled mouse liver S9 fraction; 1 μM compound, 1 mg/mL pooled mouse liver S9, 37 °C; read-out: t1/2 Mouse Liver S9
# Method: To evaluate phase I and phase II metabolic stability, the compound (1 μM) was incubated at 37 °C for 240 min with 1 mg/mL pooled mouse liver S9 fraction (Xenotech, Kansas City, USA), 2 mM NADPH, 1 mM UDPGA, 10 mM MgCl2, 5 mM GSH and 0.1 mM PAPS. Metabolic stability of reference compounds: testosterone, verapamil and ketoconazole was determined in parallel to confirm the enzymatic activity of mouse S9 fractions. At defined time points, the incubation was stopped by precipitation of aliquots of S9 enzymes with 2 volumes of cold acetonitrile containing internal standard (150 nM diphenhydramine or 15 nM for Altis Plus measurements). Samples were kept on ice until the end of the incubation, after which precipitated protein was removed by centrifugation (15 min, 4 °C, 4,000 g).
# HepG2 = assay: Cytotoxicity assay (MTT); format: cell-based, human; conditions: Homo sapiens, HepG2; 100 µM, 48 h, MTT
# Method: HepG2 (2x10^4 cells per well) were seeded in 96-well flat-bottom culture plates in 100 µL of culture medium (DMEM containing 10% fetal calve serum and 1% penicillin-streptomycin). After 24 hours, the medium was replaced by fresh medium containing test compounds in a final DMSO concentration of 1%. […] Epirubicin and doxorubicin were used as positive controls in serial dilutions starting from 10 µM, and rifampicin was used as a negative control (at 100 µM). Cell viability was determined 48 h after treatment with compounds by adding 0.1 volumes of 3-(4,5-dimethylthiazol-2-yl)-2,5-diphenyltetrazolium bromide (MTT) solution (5 mg/mL sterile PBS) (Sigma, St. Louis, MO) to the wells. After incubating the cells for 30 min at 37 °C (atmosphere containing 5% CO2), medium was removed and MTT crystals were dissolved in 75 µL of a solution containing 10% SDS and 0.5% acetic acid in DMSO. The optical density (OD) of the samples was measured photometrically at 570 nm in a PHERAstar Omega plate reader (BMG labtech, Ortenberg, Germany). Percent viability was calculated by normalizing sample ODs to those of the DMSO controls. Each compound was tested in at least two independent experiments and CC50 values were determined using the nonlinear regression function of GraphPad Prism 10 (GraphPad Software, San Diego, CA, USA).
Compound,IC50 (Dd2b2^WT) [nM],IC50 fold shift relative to parental clone (Dd2b2^pfmdr1 G182S),IC50 fold shift relative to parental clone (Dd2b2^pfmdr1 K1065N),"IC50 (3D7^WT; 3D7, 72-h assay, mean±s.d.) [nM]",IC50 fold shift relative to 3D7^WT strain (3D7^Cas9 pfmdr1 G182S),"IC50 (3D7^WT; 3D7, 72 h) [nM]",IC50 [1] [nM],half-life at 1 µM [2] [min],inhibition at 100 µM (HepG2) [%]
"CCN(CC)Cc1cc(Nc2ccnc3cc(Cl)ccc23)ccc1O [Amodiaquine, amodiaquine, reference compound]",0.8 ± 0.2,1.1,1.2,0.8 ± 0.2,1.2,–,–,–,–
"CCN(CC)CCCC(C)Nc1ccnc2cc(Cl)ccc12 (stereo not shown) [Chloroquine, chloroquine, reference compound]",22.3 ± 1.3,–,–,–,–,1.9 ± 0.1,–,–,–
"CC(C)(C)c1ccc(O)c(NC(=O)c2cccc(Oc3cc(C(F)(F)F)ccn3)c2)c1 [Compound 24, N-(5-(tert-Butyl)-2-hydroxyphenyl)-3-((4-(trifluoromethyl)pyridin-2-yl)oxy)benzamide]",–,–,–,–,–,–,17 ± 3,5.4 ± 0.5,–
"CCN(CC)Cc1ccc(O)c(NC(=O)c2cccc(Oc3cc(C(F)(F)F)ccn3)c2)c1 [Compound 27, N-(5-((diEthylamino)methyl)-2-hydroxyphenyl)-3-((4-(trifluoromethyl)pyridin-2-yl)oxy)benzamide]",3.5 ± 0.7,10.6,9.4,2.2 ± 0.2,1.5,–,11 ± 3.4,–,–
"O=C(Nc1cc(CN2CCOCC2)ccc1O)c1cccc(Oc2cc(C(F)(F)F)ccn2)c1 [Compound 30, N-(2-Hydroxy-5-(morpholinomethyl)phenyl)-3-((4-(trifluoromethyl)pyridin-2-yl)oxy)benzamide]",5.2 ± 0.3,–,11.8,2.6 ± 0.5,–,–,10 ± 1.8,28.1 ± 5.5,45 ± 21
"O=C(Nc1cc(CN2CCOCC2)cc(F)c1O)c1cccc(Oc2cc(C(F)(F)F)ccn2)c1 [Compound 32, N-(3-Fluoro-2-hydroxy-5-(morpholinomethyl)phenyl)-3-((4-(trifluoromethyl)pyridin-2-yl)oxy)benzamide]",–,–,–,–,–,–,21.6 ± 2.65,18.4 ± 4.2,51 ± 1
"O=C(Nc1cc(CN2CCOCC2)cc(Cl)c1O)c1cccc(Oc2cc(C(F)(F)F)ccn2)c1 [Compound 33, N-(3-Chloro-2-hydroxy-5-(morpholinomethyl)phenyl)-3-((4-(trifluoromethyl)pyridin-2-yl)oxy)benzamide]",–,–,–,–,–,–,63 ± 7.4,49.9 ± 4,66 ± 2
"CCCCN(CCCC)CC(O)c1cc(Cl)cc2c1-c1ccc(Cl)cc1/C2=C/c1ccc(Cl)cc1 (stereo not shown) [Lumefantrine, lumefantrine, reference compound]",1.6 ± 0.8,0.4,0.8,1.6 ± 0.8,0.8,–,–,–,–
"OC(c1cc(C(F)(F)F)nc2c(C(F)(F)F)cccc12)C1CCCCN1 (stereo not shown) [Mefloquine, mefloquine, reference compound]",1.1 ± 0.2,0.3,0.8,1.4 ± 0.5,1.3,–,–,–,–
